Patent US12570655B2, “Cysteine covalent modifiers of AKT1 and uses thereof” (Terremoto Biosciences, Inc., priority 2023, dated 2026)
Read-outs that look alike come from different tables or passages of the source.

Columns and labels:
Type in all cases: cell-based
[1] = test system: LAPC4 prostate cancer cells; experiment: Antiproliferative effects in LAPC4 cells (CellTiter Glo); conditions: LAPC4 cells (AKT1 E17K allele), read-out: LAPC4 proliferation IC50
Summary of the method: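 LAPC4 prostate cancer cells carrying AKT1 E17K, grown in IMDM with 12% FBS, were seeded at 1,000 cells/well and exposed to compound dilutions for 72 h. Viability was read as intracellular ATP by CellTiter Glo luminescence, and IC50 was fitted with a log(inhibitor) vs. response Hill equation.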

[2] = target: T1, AKT1 E17K (Homo sapiens, UniProt P31749, E17K); experiment: Live cell AKT1 E17K target engagement by NanoBRET competitive probe displacement; conditions: HEK293 cells transfected with kinase-NanoLuciferase fusion, 2 h at 37° C.
T1 construct: expressed in transfected cells; host or cells: HEK293
Summary of the method: (§1)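 HEK293 cells transiently expressing kinase–NanoLuc fusions overnight; treated with serial compound dilutions plus fluorescent ATP-competitive tracer at ~EC50, 2 h at 37 °C. BRET ratio E600/E460 read after substrate and extracellular luciferase inhibitor; IC50 from log(inhibitor) vs response Hill fit.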

[3] = target: T2, AKT1 WT (Homo sapiens, UniProt P31749); experiment: Live cell AKT1 WT target engagement by NanoBRET competitive probe displacement; conditions: HEK293 cells transfected with kinase-NanoLuciferase fusion, 2 h at 37° C.
T2 construct: expressed in transfected cells; host or cells: HEK293
Summary of the method: as §1

[4] = target: T3, AKT2 (Homo sapiens, UniProt P31751); experiment: Live cell AKT2 target engagement by NanoBRET competitive probe displacement; conditions: HEK293 cells transfected with kinase-NanoLuciferase fusion, 2 h at 37° C.
T3 construct: expressed in transfected cells; host or cells: HEK293
Summary of the method: as §1

T2 sequence (P31749 whole entry, the tested form may be a part): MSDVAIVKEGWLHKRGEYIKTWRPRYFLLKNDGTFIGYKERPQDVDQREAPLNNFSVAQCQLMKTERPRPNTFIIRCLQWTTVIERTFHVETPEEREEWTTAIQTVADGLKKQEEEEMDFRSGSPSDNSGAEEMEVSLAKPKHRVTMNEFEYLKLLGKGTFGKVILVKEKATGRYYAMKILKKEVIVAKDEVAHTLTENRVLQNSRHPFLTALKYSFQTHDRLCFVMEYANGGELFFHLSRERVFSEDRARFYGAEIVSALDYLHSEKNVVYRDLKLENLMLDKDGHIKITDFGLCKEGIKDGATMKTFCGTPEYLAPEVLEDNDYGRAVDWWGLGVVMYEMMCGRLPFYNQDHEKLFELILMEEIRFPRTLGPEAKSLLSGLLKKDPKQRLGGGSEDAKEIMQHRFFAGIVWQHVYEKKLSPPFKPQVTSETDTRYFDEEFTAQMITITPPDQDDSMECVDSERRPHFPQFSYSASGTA
T3 sequence (P31751 whole entry, the tested form may be a part): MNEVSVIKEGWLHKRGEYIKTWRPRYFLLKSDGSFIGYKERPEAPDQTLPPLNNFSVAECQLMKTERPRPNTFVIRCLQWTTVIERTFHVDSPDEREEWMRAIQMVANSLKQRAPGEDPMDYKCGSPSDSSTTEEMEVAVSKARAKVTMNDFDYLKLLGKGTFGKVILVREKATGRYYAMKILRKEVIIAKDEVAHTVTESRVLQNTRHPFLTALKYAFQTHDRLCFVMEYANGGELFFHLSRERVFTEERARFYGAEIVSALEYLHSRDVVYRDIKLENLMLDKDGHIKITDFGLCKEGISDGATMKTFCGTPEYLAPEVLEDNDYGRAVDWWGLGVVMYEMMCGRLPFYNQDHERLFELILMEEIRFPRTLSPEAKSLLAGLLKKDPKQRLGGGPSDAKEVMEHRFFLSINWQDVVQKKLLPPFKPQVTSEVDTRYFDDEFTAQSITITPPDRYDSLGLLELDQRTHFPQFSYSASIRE
T1 sequence (P31749 whole entry E17K, the tested form may be a part): as the sequence (P31749 whole entry, the tested form may be a part) above, with E17K counted along it

Row | IC50 ([1]; Homo sapiens, LAPC4, 72 h) | IC50 [2] | IC50 [3] | IC50 [4] | IC50 ([1]; 72 h) | SMILES
1 | 677 nM | 312 nM | 110 nM | 1190 nM | – | CC(C)(C)/C=C/C(=O)N1CCC(N[C@H]2CCc3cc(-n4c(-c5cccnc5N)nc5ccc(-n6cccn6)nc54)ccc32)CC1 [Example 95, (S,E)-1-(4-((5-(2-(2-aminopyridin-3-yl)-5-(1H-pyrazol-1-yl)-3H-imidazo[4,5-b]pyridin-3-yl)-2,3-dihydro-1H-inden-1-yl)amino)piperidin-1-yl)-4,4-dimethylpent-2-en-1-one]
2 | 680 nM | 39.8 nM | 2940 nM | 153 nM | – | C=CC(=O)NCc1ccccc1C(=O)N[C@H]1CCc2cc(-n3c(-c4cccnc4N)nc4ccc(-n5nccn5)nc43)ccc21 [Example 263, (S)-N-[(1S)-5-[2-(2-aminopyridin-3-yl)-5-(1,2,3-triazol-2-yl)imidazo[4,5-b]pyridin-3-yl]-2,3-dihydro-1H-inden-1-yl]-2-(prop-2-enamidomethyl)benzamide]
3 | 1090 nM | 358 nM | 72.6 nM | 1870 nM | – | C=CC(=O)N1CC(N2CCC(N[C@H]3CCc4cc(-n5c(-c6cccnc6N)nc6ccc(-n7cccn7)nc65)ccc43)CC2)C1 [Example 158, (S)-1-(3-(4-((5-(2-(2-aminopyridin-3-yl)-5-(1H-pyrazol-1-yl)-3H-imidazo[4,5-b]pyridin-3-yl)-2,3-dihydro-1H-inden-1-yl)amino)piperidin-1-yl)azetidin-1-yl)prop-2-en-1-one]
4 | – | 187 nM | 29.7 nM | 1030 nM | 436 nM | C=CC(=O)N1CCC(N[C@@H]2c3ccc(-n4c(-c5cccnc5N)nc5ccc(-n6cccn6)nc54)cc3CC2F)C[C@H]1C (single isomer, unassigned) [Example 145, 1-((2R,4*)-4-(((1R,2*)-5-(2-(2-aminopyridin-3-yl)-5-(1H-pyrazol-1-yl)-3H-imidazo[4,5-b]pyridin-3-yl)-2-fluoro-2,3-dihydro-1H-inden-1-yl)amino)-2-methylpiperidin-1-yl)prop-2-en-1-one]
5 | – | 17.7 nM | 542 nM | 89.5 nM | 362 nM | C=CC(=O)N1CCC(N[C@@H]2c3ccc(-n4c(-c5cccnc5N)nc5ccc(-n6ccc(F)n6)nc54)cc3CC2F)CC1 (single isomer, unassigned) [Example 237, 1-(4-(((1R,2*)-5-(2-(2-aminopyridin-3-yl)-5-(3-fluoro-1H-pyrazol-1-yl)-3H-imidazo[4,5-b]pyridin-3-yl)-2-fluoro-2,3-dihydro-1H-inden-1-yl)amino)piperidin-1-yl)prop-2-en-1-one]
6 | – | 23.9 nM | 6.71 nM | 104 nM | 144 nM | C=CC(=O)N1CCC(N[C@H]2CCc3cc(-n4c(-c5cccnc5N)nc5ccc(-n6cccn6)nc54)ccc32)C(F)(F)C1 (single isomer, unassigned) [Example 56, 1-((*)-4-(((S)-5-(2-(2-aminopyridin-3-yl)-5-(1H-pyrazol-1-yl)-3H-imidazo[4,5-b]pyridin-3-yl)-2,3-dihydro-1H-inden-1-yl)amino)-3,3-difluoropiperidin-1-yl)prop-2-en-1-one]
7 | 809 nM | 186 nM | 1690 nM | 394 nM | – | C=CC(=O)N1CCC(N[C@H]2CCc3cc(-n4c(-c5cccnc5N)nc5ccc(-c6nnc(C)o6)nc54)ccc32)CC1 [Example 256, (S)-1-(4-((5-(2-(2-aminopyridin-3-yl)-5-(5-methyl-1,3,4-oxadiazol-2-yl)-3H-imidazo[4,5-b]pyridin-3-yl)-2,3-dihydro-1H-inden-1-yl)amino)piperidin-1-yl)prop-2-en-1-one]
8 | 335 nM | 5.9 nM | 86.4 nM | 53.6 nM | – | CC#CC(=O)NCc1ccccc1C(=O)N[C@H]1CCc2cc(-n3c(-c4cccnc4N)nc4ccc(-n5cccn5)nc43)ccc21 [Example 267, N-[(1S)-5-[2-(2-aminopyridin-3-yl)-5-(pyrazol-1-yl)imidazo[4,5-b]pyridin-3-yl]-2,3-dihydro-1H-inden-1-yl]-2-(but-2-ynamidomethyl)benzamide]
9 | – | 482 nM | 41.6 nM | 780 nM | 557 nM | C=CC(=O)N1CCC(N[C@H]2CCc3cc(-n4c(-c5cccnc5N)nc5ccc(-n6cccn6)nc54)ccc32)C(OC)C1 (single isomer, unassigned) [Example 117, 1-((3*,4*)-4-(((S)-5-(2-(2-aminopyridin-3-yl)-5-(1H-pyrazol-1-yl)-3H-imidazo[4,5-b]pyridin-3-yl)-2,3-dihydro-1H-inden-1-yl)amino)-3-methoxypiperidin-1-yl)prop-2-en-1-one]
10 | 216 nM | 81.6 nM | 50.1 nM | 250 nM | – | C=CC(=O)N1CCC(C(=O)N[C@H]2CCc3cc(-n4c(-c5cccnc5N)nc5ccc(-n6cccn6)nc54)ccc32)CC1 [Example 29, N-[(1S)-5-[2-(2-aminopyridin-3-yl)-5-(pyrazol-1-yl)imidazo[4,5-b]pyridin-3-yl]-2,3-dihydro-1H-inden-1-yl]-1-(prop-2-enoyl)piperidine-4-carboxamide]
11 | > 10000 nM | > 1000 nM | > 1000 nM | > 10000 nM | – | C=CC(=O)N1CCC(N[C@H]2CCc3cc(-n4c(-c5ccccc5)nc5ccc(-n6cccn6)nc54)ccc32)CC1 [Example 152, (S)-1-(4-((5-(2-phenyl-5-(1H-pyrazol-1-yl)-3H-imidazo[4,5-b]pyridin-3-yl)-2,3-dihydro-1H-inden-1-yl)amino)piperidin-1-yl)prop-2-en-1-one]
12 | > 10000 nM | 881 nM | 204 nM | 2090 nM | – | C=C(Cl)C(=O)Nc1ccccc1C(=O)N[C@H]1CCc2cc(-n3c(-c4cccnc4N)nc4ccc(-n5cccn5)nc43)ccc21 [Example 38, (S)-N-(5-(2-(2-aminopyridin-3-yl)-5-(1H-pyrazol-1-yl)-3H-imidazo[4,5-b]pyridin-3-yl)-2,3-dihydro-1H-inden-1-yl)-2-(2-chloroacrylamido)benzamide]
13 | 93.3 nM | 10.9 nM | 89.7 nM | 36.8 nM | – | C=CC(=O)N1CCC(N[C@H]2CCc3cc(-n4c(-c5cccnc5N)nc5ccc(-n6cc(F)cn6)nc54)ccc32)CC1 [Example 254, (S)-1-(4-((5-(2-(2-aminopyridin-3-yl)-5-(4-fluoro-1H-pyrazol-1-yl)-3H-imidazo[4,5-b]pyridin-3-yl)-2,3-dihydro-1H-inden-1-yl)amino)piperidin-1-yl)prop-2-en-1-one]
14 | – | 8.12 nM | 146 nM | 22.4 nM | 110 nM | C=CC(=O)N1CCC(N[C@H]2CCc3cc(-n4c(-c5cccnc5N)nc5ccc(-n6cccn6)nc54)ccc32)C(C)(F)C1 (single isomer, unassigned) [Example 309, 1-((3*,4*)-4-(((S)-5-(2-(2-aminopyridin-3-yl)-5-(1H-pyrazol-1-yl)-3H-imidazo[4,5-b]pyridin-3-yl)-2,3-dihydro-1H-inden-1-yl)amino)-3-fluoro-3-methylpiperidin-1-yl)prop-2-en-1-one]
15 | 120 nM | 14.3 nM | 183 nM | 70.3 nM | – | C=CC(=O)N1CCC(N[C@H]2CCc3cc(-n4c(-c5cccnc5N)nc5c(C#N)cc(-n6cccn6)nc54)ccc32)CC1 [Example 315, 2-(2-aminopyridin-3-yl)-3-[(1S)-1-{[1-(prop-2-enoyl)piperidin-4-yl]amino}-2,3-dihydro-1H-inden-5-yl]-5-(pyrazol-1-yl)imidazo[4,5-b]pyridine-7-carbonitrile]
16 | – | 23.6 nM | 1240 nM | 92.1 nM | 351 nM | C=CC(=O)N1CCC(N[C@@H]2c3ccc(-n4c(-c5cccnc5N)nc5ccc(-n6ccc(F)n6)nc54)cc3CC2F)C[C@@H]1C (single isomer, unassigned) [Example 272, 1-((2S,4*)-4-(((1R,2*)-5-(2-(2-aminopyridin-3-yl)-5-(3-fluoro-1H-pyrazol-1-yl)-3H-imidazo[4,5-b]pyridin-3-yl)-2-fluoro-2,3-dihydro-1H-inden-1-yl)amino)-2-methylpiperidin-1-yl)prop-2-en-1-one]
17 | 78.2 nM | 11.8 nM | 290 nM | 45.5 nM | – | C=CC(=O)N1CCC(N[C@H]2CCc3cc(-n4c(-c5cccnc5N)nc5ccc(-c6nnc(C7CC7)s6)nc54)ccc32)CC1 [Example 320, (S)-1-(4-((5-(2-(2-aminopyridin-3-yl)-5-(5-cyclopropyl-1,3,4-thiadiazol-2-yl)-3H-imidazo[4,5-b]pyridin-3-yl)-2,3-dihydro-1H-inden-1-yl)amino)piperidin-1-yl)prop-2-en-1-one]
18 | 2380 nM | 67.4 nM | 603 nM | 802 nM | – | C=CC(=O)N1CCC(N[C@H]2CCc3cc(-n4c(-c5cccnc5N)nc5cc(C6CC6)cnc54)ccc32)CC1 [Example 199, 1-(4-{[(1S)-5-[2-(2-aminopyridin-3-yl)-6-cyclopropylimidazo[4,5-b]pyridin-3-yl]-2,3-dihydro-1H-inden-1-yl]amino}piperidin-1-yl)prop-2-en-1-one]
